Key:
Assay type in all cases: functional
Bipolaris oryzae [1] = assay: Antifungal activity against Bipolaris oryzae assessed as fungus colony inhibition at 1000 ppm measured after 96 hr by agar dilution method
Bipolaris oryzae [2] = assay: Antifungal activity against Bipolaris oryzae assessed as fungus colony inhibition at 100 ppm measured after 96 hr by agar dilution method
Aspergillus niger [3] = assay: Antifungal activity against Aspergillus niger assessed as fungus colony inhibition at 100 ppm measured after 96 hr by agar dilution method
Aspergillus niger [4] = assay: Antifungal activity against Aspergillus niger assessed as fungus colony inhibition at 10 ppm measured after 96 hr by agar dilution method
Bipolaris oryzae [5] = assay: Antifungal activity against Bipolaris oryzae assessed as fungus colony inhibition at 10 ppm measured after 96 hr by agar dilution method
Aspergillus niger [6] = assay: Antifungal activity against Aspergillus niger assessed as fungus colony inhibition at 1000 ppm measured after 96 hr by agar dilution method

SMILES | inhibition at 1000 ppm (Bipolaris oryzae [1]) [%] | inhibition at 100 ppm (Bipolaris oryzae [2]) [%] | inhibition at 100 ppm (Aspergillus niger [3]) [%] | inhibition at 10 ppm (Aspergillus niger [4]) [%] | inhibition at 10 ppm (Bipolaris oryzae [5]) [%] | inhibition at 1000 ppm (Aspergillus niger [6]) [%]
Cc1ccc(C(C)C)c(OCC(=O)NC(=S)Nc2nnc(-c3ccccc3)o2)c1 | 66.6 | 45.3 | 48.2 | 33.7 | 31.8 | 69.3
O=[N+]([O-])c1ccc(OCc2nc(=S)nc3oc(-c4ccccc4)nn23)cc1 | 73.4 | 56.2 | 53.3 | 40.7 | 41.5 | 71.2
Cc1cccc(OCC(=O)NC(=S)Nc2nnc(-c3ccccc3)o2)c1 | 69.8 | 50.4 | 50.2 | 34.7 | 36.6 | 71.3
Cc1ccc(OCC(=O)NC(=S)Nc2nnc(-c3ccccc3)o2)cc1 | 70.1 | 50.8 | 52.6 | 35.8 | 37.2 | 72.2
COc1ccc(-c2nn3c(COc4cccc(C)c4)nc(=S)nc3o2)cc1 | 60.3 | 40.2 | 42.3 | 32 | 30.4 | 62.5
COc1ccc(-c2nnc(NC(=S)NC(=O)COc3ccc(C)cc3)o2)cc1 | 75.3 | 55.6 | 56.9 | 39.2 | 38.5 | 76.3
COc1ccc(-c2nnc(NC(=S)NC(=O)COc3cc(C)ccc3C(C)C)o2)cc1 | 70.8 | 50.9 | 61.6 | 46.3 | 40.2 | 72.4
Cc1ccc(C(C)C)c(OCc2nc(=S)nc3oc(-c4ccccc4)nn23)c1 | 74.8 | 60.4 | 62.1 | 48.2 | 48.6 | 78.6
COc1ccc(-c2nn3c(COc4cc(C)ccc4C(C)C)nc(=S)nc3o2)cc1 | 80.2 | 64.8 | 66.4 | 52.6 | 52.3 | 82.5
Cc1cccc(OCc2nc(=S)nc3oc(-c4ccccc4)nn23)c1 | 72.5 | 53.2 | 57.3 | 41.5 | 36.7 | 76.2
COc1ccc(-c2nn3c(COc4ccc([N+](=O)[O-])cc4)nc(=S)nc3o2)cc1 | 77.9 | 60.5 | 58.5 | 41.5 | 48.5 | 75.8
O=C(COc1ccccc1[N+](=O)[O-])NC(=S)Nc1nnc(-c2ccccc2)o1 | 80.2 | 65.4 | 68.4 | 54.8 | 51.6 | 85.6
COc1ccc(-c2nn3c(COc4ccc(C)cc4)nc(=S)nc3o2)cc1 | 60.8 | 40.5 | 42.7 | 32.6 | 30.9 | 62.3
O=C(COc1ccc([N+](=O)[O-])cc1)NC(=S)Nc1nnc(-c2ccccc2)o1 | 81.2 | 64.7 | 67.9 | 54.3 | 50.8 | 85.2
Cc1ccc(OCc2nc(=S)nc3oc(-c4ccccc4)nn23)cc1 | 72.6 | 52.5 | 56.7 | 40.9 | 40.3 | 75.3
COc1ccc(-c2nnc(NC(=S)NC(=O)COc3cccc(C)c3)o2)cc1 | 75.6 | 56.4 | 55.3 | 39.4 | 40.5 | 77.2
COc1ccc(-c2nnc(NC(=S)NC(=O)COc3ccc([N+](=O)[O-])cc3)o2)cc1 | 75.2 | 61.6 | 64.1 | 50.2 | 47.4 | 78.7
O=[N+]([O-])c1ccccc1OCc1nc(=S)nc2oc(-c3ccccc3)nn12 | 74.4 | 55.4 | 52.2 | 40.3 | 40.2 | 70.2

Reference: ChEMBL document CHEMBL3045218, “Synthesis and Fungicidal Activities of Some 1-Aryloxyaceto-3-(5-aryl-1, 3, 4-oxadiazol-2-yl) thioureas and Corresponding Oxadiazolo [3, 2-a]-s-triazines” (1990)
